Numbers after ± are expanded uncertainties.
Assay: excess molar enthalpy (molar enthalpy of mixing); xn = mol fraction of the nth substance listed
Settings: 101 kPa, Liquid, Flow calorimetry

With `c1ccccc1` [benzene] + CCCCO the excess molar enthalpy (298.15 K, x1 = 0.0504) was 0.0282 ± 0.00115 kcal/mol, the excess molar enthalpy (298.15 K, x1 = 0.0997) was 0.0566 ± 0.00155 kcal/mol and the excess molar enthalpy (298.15 K, x1 = 0.1497) was 0.0851 ± 0.00208 kcal/mol. It also gave an excess molar enthalpy (298.15 K, x1 = 0.1997) of 0.113 ± 0.00263 kcal/mol, an excess molar enthalpy (298.15 K, x1 = 0.2505) of 0.141 ± 0.00311 kcal/mol and an excess molar enthalpy (298.15 K, x1 = 0.3001) of 0.167 ± 0.00359 kcal/mol. The excess molar enthalpy (298.15 K, x1 = 0.3506) was 0.191 ± 0.00406 kcal/mol, the excess molar enthalpy (298.15 K, x1 = 0.3999) was 0.212 ± 0.00454 kcal/mol and the excess molar enthalpy (298.15 K, x1 = 0.4502) was 0.23 ± 0.00502 kcal/mol. The excess molar enthalpy (298.15 K, x1 = 0.5002) was 0.246 ± 0.00526 kcal/mol, the excess molar enthalpy (298.15 K, x1 = 0.5501) was 0.257 ± 0.0055 kcal/mol and the excess molar enthalpy (298.15 K, x1 = 0.5998) was 0.265 ± 0.00574 kcal/mol. It also gave an excess molar enthalpy (298.15 K, x1 = 0.6505) of 0.267 ± 0.00574 kcal/mol, an excess molar enthalpy (298.15 K, x1 = 0.7) of 0.264 ± 0.00574 kcal/mol and an excess molar enthalpy (298.15 K, x1 = 0.7503) of 0.256 ± 0.0055 kcal/mol. For the same compound, the excess molar enthalpy (298.15 K, x1 = 0.7996) was 0.242 ± 0.00526 kcal/mol, the excess molar enthalpy (298.15 K, x1 = 0.8497) was 0.22 ± 0.00478 kcal/mol and the excess molar enthalpy (298.15 K, x1 = 0.8996) was 0.185 ± 0.0043 kcal/mol. The excess molar enthalpy (298.15 K, x1 = 0.9504) was 0.129 ± 0.00335 kcal/mol, the excess molar enthalpy (313.15 K, x1 = 0.0494) was 0.0354 ± 0.00143 kcal/mol and the excess molar enthalpy (313.15 K, x1 = 0.1007) was 0.0726 ± 0.00198 kcal/mol. It also gave an excess molar enthalpy (313.15 K, x1 = 0.1497) of 0.108 ± 0.00263 kcal/mol, an excess molar enthalpy (313.15 K, x1 = 0.2007) of 0.143 ± 0.00335 kcal/mol and an excess molar enthalpy (313.15 K, x1 = 0.2495) of 0.175 ± 0.00382 kcal/mol. The excess molar enthalpy (313.15 K, x1 = 0.3002) was 0.206 ± 0.00454 kcal/mol, the excess molar enthalpy (313.15 K, x1 = 0.3507) was 0.234 ± 0.00502 kcal/mol and the excess molar enthalpy (313.15 K, x1 = 0.401) was 0.26 ± 0.00574 kcal/mol. The excess molar enthalpy (313.15 K, x1 = 0.4493) was 0.28 ± 0.00598 kcal/mol, the excess molar enthalpy (313.15 K, x1 = 0.4993) was 0.297 ± 0.00645 kcal/mol and the excess molar enthalpy (313.15 K, x1 = 0.5492) was 0.31 ± 0.00669 kcal/mol. For the same compound, the excess molar enthalpy (313.15 K, x1 = 0.601) was 0.317 ± 0.00669 kcal/mol, the excess molar enthalpy (313.15 K, x1 = 0.6506) was 0.32 ± 0.00693 kcal/mol and the excess molar enthalpy (313.15 K, x1 = 0.7001) was 0.316 ± 0.00669 kcal/mol. For the same compound, the excess molar enthalpy (313.15 K, x1 = 0.7495) was 0.306 ± 0.00669 kcal/mol, the excess molar enthalpy (313.15 K, x1 = 0.8007) was 0.287 ± 0.00621 kcal/mol and the excess molar enthalpy (313.15 K, x1 = 0.8498) was 0.259 ± 0.00574 kcal/mol. It also gave an excess molar enthalpy (313.15 K, x1 = 0.9007) of 0.215 ± 0.00502 kcal/mol and an excess molar enthalpy (313.15 K, x1 = 0.9495) of 0.145 ± 0.00382 kcal/mol.

Reference: the NIST ThermoML archive (doi:10.1016/j.fluid.2009.06.015)
